{"source": "patent US20040242627A1", "about": "“2-Iminoimidazole derivatives (1)” (priority 2001, published 2004)", "key": {"PAR1 thrombin receptor": {"molecular_target": "T1, PAR1 thrombin receptor (Homo sapiens, UniProt P25116)", "T1 construct": "homogenized with a Dounce homogenizer, and then centrifuged at 40,000 g for 60 minutes to yield platelet membrane; from tissue; host or cells: platelet membrane prepared from the blood of a healthy adult donor", "T1 sequence (P25116 22-425)": "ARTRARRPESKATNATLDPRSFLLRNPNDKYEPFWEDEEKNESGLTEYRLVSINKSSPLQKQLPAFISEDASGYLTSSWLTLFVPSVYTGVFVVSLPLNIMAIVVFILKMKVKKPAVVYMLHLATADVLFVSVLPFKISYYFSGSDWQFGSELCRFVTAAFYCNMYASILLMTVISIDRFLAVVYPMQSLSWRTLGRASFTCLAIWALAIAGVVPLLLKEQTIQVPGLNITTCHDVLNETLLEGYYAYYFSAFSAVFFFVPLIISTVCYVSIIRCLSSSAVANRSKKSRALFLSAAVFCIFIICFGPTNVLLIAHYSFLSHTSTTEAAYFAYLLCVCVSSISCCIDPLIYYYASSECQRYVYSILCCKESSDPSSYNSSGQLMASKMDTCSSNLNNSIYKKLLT", "test": "Receptor binding assay (high affinity TRAP displacement, platelet membrane)", "conditions": "platelet membrane of healthy adult, [3H] high affinity TRAP, 37° C. 1 hour; read-out: RBA IC50", "procedure": "Blood was sampled from a healthy adult who had taken no drugs for one week, and 3.8% citric acid (a ratio of 1:9 with respect to the blood) was added as an anticoagulant. The mixture was then centrifuged at 100 g for 10 minutes at room temperature to yield platelet rich plasma (PRP). The platelet precipitate obtained by centrifuging the PRP was homogenized with a Dounce homogenizer, and then centrifuged at 40,000 g for 60 minutes to yield platelet membrane. The platelet membrane was suspended in a solution prepared by adding DMSO (dimethyl sulfoxide) at 1% concentration to Buffer 1: a 50 mM Tris-HCl buffer containing 10 mM MgCl2 and 1 mM EGTA (ethylene glycol tetraacetic acid), and the suspension was stored at −80° C. Bovine albumin and DMSO were added to Buffer 1 at 0.1% and 20%, respectively, to make a preparation solution for the test compound. […] Next, 30 μl of liquid scintillator was added for measurement of the radioactivity of the plate using a Top Counter (Packard), the value of the radioactivity in the presence of the test compound minus non-specific binding portion was divided by the specific binding value (the value of the binding in the absence of the compound minus the non-specific binding portion) to determine the binding ratio, from which the IC50 value was calculated. […]"}, "[1]": {"tested_on": "platelet rich plasma (PRP), thrombin-induced platelet aggregation", "test": "Inhibitory effects on platelet aggregation using platelet rich plasma (thrombin-induced)", "assay_type": "cell-based", "conditions": "Homo sapiens, PRP of healthy adult, thrombin 0.5-1.5 units/ml, area under aggregation curve, read-out: Thr IC50", "procedure": "[Inhibitory Effects on Platelet Aggregation using Platelet Rich Plasma]\nBlood was sampled from a healthy adult who had taken no drugs for one week, and 3.8% citric acid (a ratio of 1:9 with respect to the blood) was added as an anticoagulant. The mixture was then centrifuged at 100 g for 10 minutes at room temperature to yield platelet rich plasma (PRP). The PRP-removed blood was further centrifuged at 1000 g for 10 minutes to yield platelet poor plasma (PPP). The number of platelet was counted using a multi-parameter automatic hemocyte counter (K4500, Sysmex), and the PRP was diluted to approximately 300,000/μl with the PPP. The platelet aggregation activity was determined in the following manner using an Aggregometer (MC Medical). […] After addition of thrombin, the aggregation reaction was examined for 6 minutes and the areas under the aggregation curves were compared to determine the inhibition ratio, from which the IC50 value was calculated."}}, "note": "Counter-ions that a name gives are not always drawn."}
{"smiles": "CC(C)(C)c1cc(C(=O)Cn2c(=N)n(Cc3ccc(N)cc3)c3ccccc32)cc(C(C)(C)C)c1O", "note": "[Example 40, 2-[3-(4-amino-benzyl)-2-imino-2,3-di-hydro-benzimida-zol-1-yl]-1-(3,5-di-tert-bu-tyl-4-hydroxy-phenyl)-ethanone dihydrochloride]", "values": [{"measurement": "IC50", "setting": "PAR1 thrombin receptor", "result": 260, "unit": "nM"}, {"measurement": "IC50", "setting": "[1]", "result": 1300, "unit": "nM"}]}
